Measurements taken from paper PMC12583694, “RNF114 and RNF166 exemplify reader-writer E3 ligases that extend K11 polyubiquitin onto sites of MARUbylation” (The EMBO Journal, 2025).

Key:
RNF114 = biological target: T1, RNF114 (Homo sapiens, UniProt Q9Y508); experiment: fluorescence polarization; assay type: binding; conditions: labelled compound; unreliable (estimated, saturation not reached); pH 7.4, 150 mM NaCl, 0.1 mg/mL BSA, 1 mM TCEP, 22 °C
T1 construct: full-length RNF114, N-terminal His-3C fusion (pOPIN-B), expressed in E. coli Rosetta; cobalt resin and gel filtration

[1] = biological target: T2, AF1521 macrodomain (GST-AF1521) (Archaeoglobus fulgidus, UniProt O28751); experiment: fluorescence polarization; conditions: labelled compound; pH 7.4, 150 mM NaCl, 0.1 mg/mL BSA, 1 mM TCEP, 22 °C; one-site total binding fit
T2 construct: gene AF_1521; GST-AF1521 plasmid (gift from M. Nielsen), purified as previously reported
T2 sequence (O28751 1-192): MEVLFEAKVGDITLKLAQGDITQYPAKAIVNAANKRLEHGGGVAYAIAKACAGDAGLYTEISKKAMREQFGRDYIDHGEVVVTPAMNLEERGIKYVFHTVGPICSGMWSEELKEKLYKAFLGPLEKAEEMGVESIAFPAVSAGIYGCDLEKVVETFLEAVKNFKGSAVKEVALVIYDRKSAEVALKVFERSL

T1 sequence (Q9Y508 whole entry, the tested form may be a part): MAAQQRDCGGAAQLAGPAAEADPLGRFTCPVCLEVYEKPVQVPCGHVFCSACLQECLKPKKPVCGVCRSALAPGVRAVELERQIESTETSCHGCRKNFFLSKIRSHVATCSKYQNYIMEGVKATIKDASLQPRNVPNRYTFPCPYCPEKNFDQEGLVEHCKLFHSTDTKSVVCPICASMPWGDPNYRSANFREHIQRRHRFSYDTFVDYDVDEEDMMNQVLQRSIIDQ

Kd (RNF114): ~ 40 µM | Kd [1]: 1.2 µM
Substance: ADPr^T
